# Measured values published in patent US10556865B2, “Synergistic herbicidal composition containing certain pyridine or pyrimidine carboxylic acids and certain cereal and rice herbicides” (Dow AgroSciences, LLC, priority 2007, dated 2020).
# Where two headings read alike, the source gives them in different places.
# Assays:
# Format in all cases: in vivo
# [1] = system: annual ryegrass (Lolium multiflorum L; LOLMG); test: Postemergence herbicidal activity of mixtures in cereal crops (greenhouse, visual injury)
# Procedure, shortened: (§1)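 Plants at second-third true leaf stage sprayed postemergence at 187 L/ha with compound and second cereal herbicide alone and combined; solvent blank controls. Visual injury scored 0-100% versus controls after 20-22 days; expected mixture effects by Colby's equation.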
# [2] = system: wild oats (Avena fatua L; AVEFA); test: as above
# Procedure, shortened: as §1
# [3] = system: windgrass (Apera spica-venti L; APESV); test: as above; details: for pest or weed control at 8.75 g/ha / pest or weed control at 17.5 g/ha / pest or weed control at 35 g/ha / pest or weed control at 70 g/ha / pest or weed control at 140 g/ha: Apera spica-venti, post-emergence, read-out: APESV Ob
# Procedure, shortened: as §1
# [4] = system: littleseed Canarygrass (Phalaris minor L; PHAMI); test: as above; details: for PHAMI: Table 13
# Procedure, shortened: as §1
# [5] = system: blackgrass (Alopecurus myosuroides L; ALOMY); test: Postemergence herbicidal activity of mixtures in cereal crops (greenhouse, visual injury 0-100 percent after 20-22 days)
# Procedure, shortened: as §1
smiles,measurement,setting,value
"COC(=O)c1nc(-c2ccc(Cl)c(OC)c2F)nc(N)c1Cl [Compound B Methyl, 6-amino-5-chloro-2-(4-chloro-2-fluoro-3-methoxyphenyl)pyrimidine-4-carboxylic acid methyl ester]",LOLMG Ob,[1]; 8.75 g/ha,0%
same,LOLMG Ob,"[1]; 8.75 g/ha, Table 22",0%
same,LOLMG Ob,[1]; 17.5 g/ha,0%
same,LOLMG Ob,"[1]; 17.5 g/ha, Table 22",0%
same,LOLMG Ob,[1]; 35 g/ha,0%
same,LOLMG Ob,"[1]; 35 g/ha, Table 22",0%
same,LOLMG Ob,[1]; 70 g/ha,0%
same,LOLMG Ob,"[1]; 70 g/ha, Table 22",0%
same,AVEFA Ob,[2]; 8.75 g/ha,0%
same,AVEFA Ob,"[2]; 8.75 g/ha, Table 20",0%
same,AVEFA Ob,[2]; 17.5 g/ha,0%
same,AVEFA Ob,"[2]; 17.5 g/ha, Table 20",0%
same,AVEFA Ob,[2]; 35 g/ha,0%
same,AVEFA Ob,"[2]; 35 g/ha, Table 20",0%
same,AVEFA Ob,[2]; 70 g/ha,0%
same,AVEFA Ob,"[2]; 70 g/ha, Table 20",0%
same,APESV Ob,[3]; 8.75 g/ha,0%
same,APESV Ob,[3]; 17.5 g/ha,0%
same,APESV Ob,[3]; 35 g/ha,0%
same,APESV Ob,[3]; 70 g/ha,0%
same,pest or weed control at 8.75 g/ha,"[3]; 8.75 g/ha, Table 20",0%
same,pest or weed control at 8.75 g/ha,"[3]; 8.75 g/ha, Table 22",0%
same,pest or weed control at 17.5 g/ha,"[3]; 17.5 g/ha, Table 20",0%
same,pest or weed control at 17.5 g/ha,"[3]; 17.5 g/ha, Table 22",0%
same,pest or weed control at 35 g/ha,"[3]; 35 g/ha, Table 20",0%
same,pest or weed control at 35 g/ha,"[3]; 35 g/ha, Table 22",0%
same,pest or weed control at 70 g/ha,"[3]; 70 g/ha, Table 20",0%
same,pest or weed control at 70 g/ha,"[3]; 70 g/ha, Table 22",0%
same,PHAMI Ob,[4]; 8.75 g/ha,0%
same,PHAMI Ob,"[4]; 8.75 g/ha, Table 20",0%
same,PHAMI Ob,"[4]; 8.75 g/ha, Table 22",0%
same,PHAMI Ob,[4]; 17.5 g/ha,0%
same,PHAMI Ob,"[4]; 17.5 g/ha, Table 20",0%
same,PHAMI Ob,"[4]; 17.5 g/ha, Table 22",0%
same,PHAMI Ob,[4]; 35 g/ha,0%
same,PHAMI Ob,"[4]; 35 g/ha, Table 20",0%
same,PHAMI Ob,"[4]; 35 g/ha, Table 22",0%
same,PHAMI Ob,[4]; 70 g/ha,0%
same,PHAMI Ob,"[4]; 70 g/ha, Table 20",0%
same,PHAMI Ob,"[4]; 70 g/ha, Table 22",0%
same,ALOMY Ob,[5]; 8.75 g/ha,0%
same,ALOMY Ob,"[5]; 8.75 g/ha, Table 20",0%
same,ALOMY Ob,"[5]; 8.75 g/ha, Table 22",0%
same,ALOMY Ob,[5]; 17.5 g/ha,10%
same,ALOMY Ob,"[5]; 17.5 g/ha, Table 20",10%
same,ALOMY Ob,"[5]; 17.5 g/ha, Table 22",10%
same,ALOMY Ob,[5]; 35 g/ha,20%
same,ALOMY Ob,"[5]; 35 g/ha, Table 20",20%
same,ALOMY Ob,"[5]; 35 g/ha, Table 22",20%
same,ALOMY Ob,[5]; 70 g/ha,40%
same,ALOMY Ob,"[5]; 70 g/ha, Table 20",40%
same,ALOMY Ob,"[5]; 70 g/ha, Table 22",40%
"COC(=O)c1nc(-c2ccc(Cl)c(OC)c2F)cc(N)c1Cl [Compound A Methyl, 4-amino-3-chloro-6-(4-chloro-2-fluoro-3-methoxyphenyl)pyridine-2-carboxylic acid methyl ester]",LOLMG Ob,"[1]; 17.5 g/ha, Table 1",20%
same,LOLMG Ob,"[1]; 17.5 g/ha, Table 2",20%
same,LOLMG Ob,"[1]; 35 g/ha, Table 1",40%
same,LOLMG Ob,"[1]; 35 g/ha, Table 2",40%
same,LOLMG Ob,"[1]; 70 g/ha, Table 1",0%
same,LOLMG Ob,"[1]; 70 g/ha, Table 2",60%
same,AVEFA Ob,"[2]; 17.5 g/ha, Table 1",30%
same,AVEFA Ob,"[2]; 17.5 g/ha, Table 4",0%
same,AVEFA Ob,"[2]; 17.5 g/ha, Table 5",0%
same,AVEFA Ob,"[2]; 35 g/ha, Table 1",30%
same,AVEFA Ob,"[2]; 35 g/ha, Table 3",40%
same,AVEFA Ob,"[2]; 35 g/ha, Table 4",40%
same,AVEFA Ob,"[2]; 35 g/ha, Table 5",40%
same,AVEFA Ob,"[2]; 70 g/ha, Table 1",35%
same,AVEFA Ob,"[2]; 70 g/ha, Table 3",45%
same,AVEFA Ob,"[2]; 70 g/ha, Table 4",45%
same,AVEFA Ob,"[2]; 70 g/ha, Table 5",45%
same,pest or weed control at 17.5 g/ha,"[3]; 17.5 g/ha, Table 1",20%
same,pest or weed control at 17.5 g/ha,"[3]; 17.5 g/ha, Table 4",0%
same,pest or weed control at 17.5 g/ha,"[3]; 17.5 g/ha, Table 5",0%
same,pest or weed control at 35 g/ha,"[3]; 35 g/ha, Table 1",20%
same,pest or weed control at 35 g/ha,"[3]; 35 g/ha, Table 3",10%
same,pest or weed control at 35 g/ha,"[3]; 35 g/ha, Table 4",10%
same,pest or weed control at 35 g/ha,"[3]; 35 g/ha, Table 5",10%
same,pest or weed control at 70 g/ha,"[3]; 70 g/ha, Table 1",30%
same,pest or weed control at 70 g/ha,"[3]; 70 g/ha, Table 3",10%
same,pest or weed control at 70 g/ha,"[3]; 70 g/ha, Table 4",10%
same,pest or weed control at 70 g/ha,"[3]; 70 g/ha, Table 5",10%
same,PHAMI Ob,"[4]; 17.5 g/ha, Table 4",20%
same,PHAMI Ob,"[4]; 17.5 g/ha, Table 5",20%
same,PHAMI Ob,"[4]; 17.5 g/ha, Table 6",20%
same,PHAMI Ob,"[4]; 35 g/ha, Table 3",30%
same,PHAMI Ob,"[4]; 35 g/ha, Table 4",30%
same,PHAMI Ob,"[4]; 35 g/ha, Table 5",30%
same,PHAMI Ob,"[4]; 35 g/ha, Table 6",30%
same,PHAMI Ob,"[4]; 35 g/ha, Table 11",3%
same,PHAMI Ob,"[4]; 70 g/ha, Table 3",35%
same,PHAMI Ob,"[4]; 70 g/ha, Table 4",35%
same,PHAMI Ob,"[4]; 70 g/ha, Table 5",35%
same,PHAMI Ob,"[4]; 70 g/ha, Table 6",35%
same,PHAMI Ob,"[4]; 70 g/ha, Table 11",6%
same,PHAMI Ob,"[4]; 140 g/ha, Table 11",17%
same,ALOMY Ob,"[5]; 17.5 g/ha, Table 1",0%
same,ALOMY Ob,"[5]; 17.5 g/ha, Table 2",0%
same,ALOMY Ob,"[5]; 17.5 g/ha, Table 4",0%
same,ALOMY Ob,"[5]; 17.5 g/ha, Table 5",0%
same,ALOMY Ob,"[5]; 17.5 g/ha, Table 6",0%
same,ALOMY Ob,"[5]; 35 g/ha, Table 1",20%
same,ALOMY Ob,"[5]; 35 g/ha, Table 2",20%
same,ALOMY Ob,"[5]; 35 g/ha, Table 3",30%
same,ALOMY Ob,"[5]; 35 g/ha, Table 4",30%
same,ALOMY Ob,"[5]; 35 g/ha, Table 5",30%
same,ALOMY Ob,"[5]; 35 g/ha, Table 6",30%
same,ALOMY Ob,"[5]; 35 g/ha, Table 7",3%
same,ALOMY Ob,"[5]; 70 g/ha, Table 1",50%
same,ALOMY Ob,"[5]; 70 g/ha, Table 2",50%
same,ALOMY Ob,"[5]; 70 g/ha, Table 3",30%
same,ALOMY Ob,"[5]; 70 g/ha, Table 4",30%
same,ALOMY Ob,"[5]; 70 g/ha, Table 5",30%
same,ALOMY Ob,"[5]; 70 g/ha, Table 6",30%
same,ALOMY Ob,"[5]; 70 g/ha, Table 7",20%
same,ALOMY Ob,"[5]; 140 g/ha, Table 7",47%
"COc1c(Cl)ccc(-c2cc(N)c(Cl)c(C(=O)O)n2)c1F [Compound A TEA, 4-amino-3-chloro-6-(4-chloro-2-fluoro-3-methoxyphenyl)pyridine-2-carboxylic acid]",LOLMG Ob,"[1]; 35 g/ha, Table 13",0%
same,LOLMG Ob,"[1]; 70 g/ha, Table 13",0%
same,LOLMG Ob,"[1]; 140 g/ha, Table 13",0%
same,AVEFA Ob,"[2]; 35 g/ha, Table 14",0%
same,AVEFA Ob,"[2]; 35 g/ha, Table 17",0%
same,AVEFA Ob,"[2]; 35 g/ha, Table 18",0%
same,AVEFA Ob,"[2]; 70 g/ha, Table 14",0%
same,AVEFA Ob,"[2]; 70 g/ha, Table 17",3%
same,AVEFA Ob,"[2]; 70 g/ha, Table 18",0%
same,AVEFA Ob,"[2]; 140 g/ha, Table 14",0%
same,AVEFA Ob,"[2]; 140 g/ha, Table 17",8%
same,AVEFA Ob,"[2]; 140 g/ha, Table 18",0%
same,pest or weed control at 35 g/ha,"[3]; 35 g/ha, Table 14",8%
same,pest or weed control at 35 g/ha,"[3]; 35 g/ha, Table 15",3%
same,pest or weed control at 35 g/ha,"[3]; 35 g/ha, Table 16",3%
same,pest or weed control at 35 g/ha,"[3]; 35 g/ha, Table 17",3%
same,pest or weed control at 35 g/ha,"[3]; 35 g/ha, Table 18",8%
same,pest or weed control at 70 g/ha,"[3]; 70 g/ha, Table 14",13%
same,pest or weed control at 70 g/ha,"[3]; 70 g/ha, Table 15",0%
same,pest or weed control at 70 g/ha,"[3]; 70 g/ha, Table 16",0%
same,pest or weed control at 70 g/ha,"[3]; 70 g/ha, Table 17",0%
same,pest or weed control at 70 g/ha,"[3]; 70 g/ha, Table 18",13%
same,pest or weed control at 140 g/ha,[3]; Table 14,15%
same,pest or weed control at 140 g/ha,[3]; Table 15,4%
same,pest or weed control at 140 g/ha,[3]; Table 16,4%
same,pest or weed control at 140 g/ha,[3]; Table 17,4%
same,pest or weed control at 140 g/ha,[3]; Table 18,15%
same,PHAMI,[4]; 35 g/ha,0%
same,PHAMI Ob,"[4]; 35 g/ha, Table 16",0%
same,PHAMI Ob,"[4]; 35 g/ha, Table 18",0%
same,PHAMI,[4]; 70 g/ha,0%
same,PHAMI Ob,"[4]; 70 g/ha, Table 16",0%
same,PHAMI Ob,"[4]; 70 g/ha, Table 18",0%
same,PHAMI,[4]; 140 g/ha,0%
same,PHAMI Ob,"[4]; 140 g/ha, Table 16",0%
same,PHAMI Ob,"[4]; 140 g/ha, Table 18",0%
same,ALOMY Ob,"[5]; 35 g/ha, Table 14",0%
same,ALOMY Ob,"[5]; 35 g/ha, Table 16",0%
same,ALOMY Ob,"[5]; 35 g/ha, Table 18",0%
same,ALOMY Ob,"[5]; 35 g/ha, Table 19",0%
same,ALOMY Ob,"[5]; 70 g/ha, Table 14",0%
same,ALOMY Ob,"[5]; 70 g/ha, Table 16",0%
same,ALOMY Ob,"[5]; 70 g/ha, Table 18",0%
same,ALOMY Ob,"[5]; 70 g/ha, Table 19",0%
same,ALOMY Ob,"[5]; 140 g/ha, Table 14",3%
same,ALOMY Ob,"[5]; 140 g/ha, Table 16",0%
same,ALOMY Ob,"[5]; 140 g/ha, Table 18",3%
same,ALOMY Ob,"[5]; 140 g/ha, Table 19",0%
